Our source for the melting point values is a melting point compilation (Tetko et al.; mined from patent text by program, amines drawn as free bases though some values may be those of a salt).

For the compound `C[C@@H](NC(=O)c1ccc(-c2ccccn2)s1)[C@](O)(Cn1cncn1)c1ccc(F)cc1F`, the melting point (commonly the temperature of the solid-liquid transition) fell in the range of 212 to 213 °C.
For `CCOc1ccc2c(c1)C(C)(c1cccc(O)c1)C(=O)N2S(=O)(=O)c1ccc(C(=O)NC(C)(C)C)cc1` (stereo not drawn), the melting point is 196 °C.
With `CC(=O)c1c(NC(=O)c2ccc(C)cc2)cccc1C(F)(F)F` the figure was 171 °C; with `CCc1cn(CC)cc(-c2cccc(C(F)(F)F)c2)c1=O`, 67 to 70 °C.
With `COc1ccc2c(CCN3CC=C(c4c[nH]c5cc(F)ccc45)CC3)coc2c1` the figure was 181 °C.
With `C=CCc1c(O)c(=O)[nH]c2cc(Cl)ccc2c1=O` the figure was 172 to 174 °C; with `Oc1cccc2c1CCC(c1ccccn1)O2` (stereo not drawn), 246 to 248 °C.
The compound `Cc1c(-c2cccc(O)c2O)c(=O)oc2cc(O)ccc12` registered a melting point of 273 to 274 °C.
For `CC(Oc1ccc(Oc2cnc3cc(Cl)ccc3n2)cc1)C(=O)Nc1ccc(OC(F)(F)CF)cc1` (stereo not drawn) the value was 137 to 140 °C; for `CCCCCCCCS(=O)Cc1c(C)c(O)c(C)c(CS(=O)CCCCCCCC)c1C` (stereo not drawn), 175 °C; for `COc1ccc(C(=O)c2ccc(CC(=O)O)n2C)cc1`, 170 to 171 °C.
`COC(=O)CCn1cc(Cc2cccnc2)c2cc(CCC(=O)O)ccc21` yielded a melting point of 108 to 110 °C.
With `CN(C)C(=O)c1c(Cl)csc1-c1ncc(C(F)(F)F)cc1Cl` the figure was 85 to 86 °C.
For `CCCCc1cc2c(C)n(C)nc2c(N)n1` the value was 130 to 131 °C; for `CC(C)c1ccc2c(c1)OCc1ccc(C(=O)O)cc1C2=O`, 203 to 204 °C.
For `CSC(SC)=C(C#N)S(=O)(=O)c1ccccc1` the value was 99 to 101 °C; for `CN(C)c1nc2sc3c(NCc4ccco4)ncnc3c2c2c1CCC2(C)C`, 89.3 to 91 °C.
In turn, `COc1ccc2c(c1)c(CC(=O)ON(C(N)=O)C(C)c1cc3ccccc3s1)c(C)n2C(=O)c1ccc(Cl)cc1` (stereo not drawn) yielded a melting point of 153 to 155 °C.
With `OCC(O)Cc1ccc(Br)cc1` (stereo not drawn) the figure was 60.6 °C.
As to `CCN(CC)C(=O)n1cnc(S(=O)(=O)CC2CCCCCC2)n1`, the melting point was 46 to 51 °C.
For `COc1cccc2c1Sc1ccccc1C21CCN(C#N)CC1` the value was 145 to 146 °C; for `CCCCCCNC(=O)C#CBr`, 64 to 64.3 °C; for `Nc1cc(C(=O)Nc2ccccc2)ccc1OC(F)(F)F`, 160 to 162 °C.
With `CCOc1cc(Cc2cnc(N)nc2N)cc2c1OC(C)(C)C=C2C(C)(C)O` the figure was 209 to 210 °C; with `CCN1C(=O)OC(=Cc2ccc3c(c2)OCO3)C1=O`, 135 to 137 °C.
For `CC(c1cc(F)cc(F)c1)n1ncc(-c2ccc(S(N)(=O)=O)cc2)c(-c2ccc(F)cc2)c1=O` (stereo not drawn) the value was 139 to 141 °C; for `CCCn1c(=O)c2c(ncn2CC(O)CO)n(CCC)c1=O` (stereo not drawn), 88 to 91 °C; for `NC(=O)N1CCN(c2nn(-c3ccccc3)c3cc(F)ccc23)CC1`, 168 to 170 °C.
With `COc1ccc(Cl)cc1-c1n[nH]c(=O)cc1NN`, the melting point was in the range of 285 to 290 °C.
With `Cc1cc(C)nc(N(C=S)c2ccccc2)n1` the figure was 161 to 165 °C.
With `COc1cc(CN2CCc3cc(OCc4ccccc4)c(OC)cc3C2=O)cc(OC)c1` the figure was 82 to 83 °C.
Consider `CCOC(=O)c1cc2n(C)c3ccc(OC)cc3c(=O)n2n1`, for which the melting point was 249 to 251 °C.
For `CCC1CN(Cc2ccccc2)c2c3c(nc4cccc(c24)O1)CCCC3` (stereo not drawn) the value was 148 to 149 °C; for `COC(=O)COc1ccc(NC(=O)OCCO)cc1`, 85.5 to 87.5 °C; for `O=[N+]([O-])c1ccc2c(C3=CCN(CCCOc4cccc5[nH]ccc45)CC3)c[nH]c2c1`, 215 to 225 °C.
`CC(C)Oc1c(F)c(F)cc2c(=O)c(C(=O)O)cn(-c3cc(N)c(F)cc3F)c12` came in with a melting point of 217 to 222 °C.
Consider `Cc1cc(C(=O)N2C(C)CCCC2C)ccc1[N+](=O)[O-]` (stereo not drawn), for which the melting point is 99.7 to 100 °C.
`COc1cc(C(=O)Nc2ccc3ccc(Cl)nc3n2)cc(OC)c1OC` showed a melting point of 210 °C.
On to `Cc1ccc2ncc(CSc3ccc([N+](=O)[O-])cc3)n2c1`, for which the melting point fell in the range of 127 to 128 °C.
For `Cc1ccccc1-n1cc(-c2ccccc2)c(CC(=O)O)n1` the value was 177 °C; for `COc1ccc(C(=O)C2(O)CCCCC2C(=O)NCC(C)C)cc1` (stereo not drawn), 143 to 147 °C; for `CCS(=O)(=O)c1cc(C(C)(C)C)cc(C=O)c1O`, 92 to 93 °C.
Turning to `CCOC(=O)c1ncn(-c2cc(C(=O)OC)c([N+](=O)[O-])cc2C(F)(F)F)n1`, the melting point lay within 190 to 192 °C.
With `ClCc1cncc(-c2ccccc2)c1` the figure was 75 to 76 °C; with `Cc1cccc(NC#N)c1N1CCOCC1`, 137 to 138 °C; with `Nc1ccc(C(=O)N2Cc3cccn3Cc3ccccc32)cc1`, 166 to 168 °C.
`CNc1c(OCCN(Cc2ccccc2)C(=O)OC(C)(C)C)cccc1[N+](=O)[O-]`: the melting point was 91 to 93 °C.
`CON1C=C2N=Nc3cc(C)cnc3N2C1` showed a melting point of 213 to 214 °C.
`COC1(OCc2ccccc2)C=C2C(=CC1)CCN(CCO)C2C1(c2ccccc2Cl)CC1` (stereo not drawn) had a melting point of 65 to 70 °C.
For `CN1C(=O)CC[C@]2(C)c3ccc(-c4cc(C(F)(F)F)cc(C(F)(F)F)c4)cc3CC[C@@H]12` the value was 110 to 112 °C.
With `CCOC(=O)c1cn(-c2ccc(C(F)(F)F)cn2)nc1C1CCCCC1` the figure was 99 to 100 °C; with `COc1cc(C)ccc1S(=O)(=O)N1CCC(=O)C(C(c2ccccc2)c2ccccc2)C1` (stereo not drawn), 130 to 131 °C.
With `CCOC(=O)CC1COc2c(OC)ccc(C(=O)Nc3ccccc3)c21` (stereo not drawn) the figure was 93 to 95 °C; with `COc1ccc2c(c1)c(C)c(CC(C)C(=O)O)n2Cc1ccc(Cl)cc1` (stereo not drawn), 128 °C; with `CCOC(=O)c1cc(NC(=O)c2ccccc2OC(C)=O)cc(Cl)c1O`, 163 to 166 °C.
`CCNC(=O)c1nc(-c2ccccc2)c(-c2ccc(=O)n(C(C)C)n2)s1` had a melting point of 172 to 174 °C.
In turn, `CCN1CCCC1CNc1ccc(-c2ccnc(Nc3cc(OC)c(OC)c(OC)c3)n2)cn1` (stereo not drawn) came in with a melting point of 81 to 82 °C.
With `Cc1cc(NC(=O)CN2CCN(c3ccccc3C#N)CC2)ccc1Br` the figure was 143 to 145 °C; with `CN1CCC(c2c(O)cc(O)c3c(=O)cc(Oc4ccccc4)oc23)C(O)C1` (stereo not drawn), 112 °C; with `COc1ccc(C(=O)O)cc1OC(C)(C)C`, 177 to 178 °C.
For `CN1CC(C(=O)N(C)Cc2ccc(C(F)(F)F)cc2)=C(O)C1=O` the value was 126 to 128 °C.
For `COc1cc(OCC2CCCO2)ccc1C=O` (stereo not drawn) the value was 73.3 °C; for `O=C(O)c1ccc2[nH]c3c(c2c1)CC(N1C(=O)c2ccccc2C1=O)CC3` (stereo not drawn), 345 to 348 °C.
In the case of `Cc1c(C)c2c(c(C)c1N)CC(C)(CI)O2` (stereo not drawn), the melting point is 105 to 107 °C.
With `COc1nc(C2CC2)nc(C(Cl)(Cl)Cl)n1` the figure was 49 to 51 °C.
Regarding `COc1ccc(N2CCOCC2)c2sc(NC(=O)N3CC4CCC3CO4)nc12` (stereo not drawn), the melting point lay in the range of 164 to 170 °C.
With `CCOC(=O)COC1=C(C(=O)Nc2cc(Cl)cc(Cl)c2)SC2=NCCCN21` the figure was 165 °C.
For `COC(=O)c1ccc(-n2cc(-c3ccc4c(c3)C(C)(C)CCC4(C)C)cn2)cc1` the value was 229 to 232 °C.
With `C[C@H](O)CCC[C@H](O)CCCCCc1cccc(O)c1C(=O)O` the figure was 83 to 84 °C; with `CC(C)(C)OC(=O)NC1COCCCC=CC2CC2(C(=O)NS(=O)(=O)C2CC2)NC(=O)C2CC(OC(=O)c3cccc(Oc4ccccc4)c3)CN2C1=O` (stereo not drawn), 123 to 125 °C.
With `NC(Cc1ccccc1)C(=O)Nc1nc2ccccc2c(=O)o1` (stereo not drawn), the melting point lay within 215 to 216 °C.
With `CCOC(=O)c1c(-c2ccc(F)cc2)c2ccccn2c1C(C)C` the figure was 99 to 100 °C.
With `N#Cc1nn(-c2c(Cl)cc(C(F)(F)F)cc2Cl)c(N)c1-c1ccccc1` the figure was 198 to 199 °C; with `C=C(C)OC(=O)N1c2ccncc2NC(=O)C1C` (racemic), 170 to 171 °C.
With `Cn1cc(-c2ccccc2)c(=O)c(-c2cccc(CC3CCCCC3)c2)c1` the figure was 147 to 148 °C; with `O=C1OCCN1CCn1ccnc1[N+](=O)[O-]`, 103 to 104 °C.
Regarding `Nc1ncnc2c1c(Br)cn2COC(O)CCO` (stereo not drawn), the melting point is 170 to 172 °C.
In turn, `O=C(O)c1ccc2c(c1)C(=O)N(c1ccc(C3(c4ccc(N5C(=O)c6ccc(C(=O)O)cc6C5=O)cc4)c4ccccc4-c4ccccc43)cc1)C2=O` gave a melting point of 328 to 331 °C.
`C[C@H](NP(=O)(Cc1ccccc1)Cc1ccccc1)C(=O)N1CCC[C@H]1C(=O)N1CCC[C@H]1C(N)=O` showed a melting point of 89 °C.
With `CCOCn1c(C(F)(F)F)c(C#N)c2ccc(Cl)cc21` the figure was 83 to 86 °C; with `CS(=O)(=O)c1ccc(-c2cc3c(cc2C(=O)c2cc(F)cc(F)c2)OCCO3)cc1`, 191 to 193 °C.
With `CSc1ccc(COc2cc(S(=O)(=O)C(C)C)cc(C#N)c2N)nc1` the figure was 156 to 157 °C; with `NS(=O)(=O)c1ccc(NCC(=O)NC2CCCCC2)cc1`, 223 to 225 °C; with `C[C@@H](n1cnc2cc(C(F)(F)F)ccc2c1=O)[C@](O)(Cn1cncn1)c1ccc(Cl)cc1Cl`, 158 to 160 °C.
For `CCN(CC)CCNC(=O)c1c(I)ccc2c(=O)c3ccccc3[nH]c12` the value was 215 to 217 °C; for `O=[N+]([O-])c1cccc2cc(-c3ccccn3)[nH]c12`, 162 to 163 °C; for `N#CCCNC(=O)c1cccc(-c2ccc3c(c2)N(Cc2ccc(Cl)cc2Cl)CCCC3)c1`, 139 to 140 °C.
Regarding `CN(C)CCNC(=O)Cc1ccc(OCc2ccc(-c3ccccc3)cc2)cc1`, the melting point lay in the range of 160 to 161 °C.
